The target of this assay is T1, human recombinant GPR65 (Homo sapiens, UniProt Q8IYL9).
T1 construct: host or cells: 1321N1 human astrocytoma cells (1321N1-hrGPR65)
T1 sequence (Q8IYL9 whole entry): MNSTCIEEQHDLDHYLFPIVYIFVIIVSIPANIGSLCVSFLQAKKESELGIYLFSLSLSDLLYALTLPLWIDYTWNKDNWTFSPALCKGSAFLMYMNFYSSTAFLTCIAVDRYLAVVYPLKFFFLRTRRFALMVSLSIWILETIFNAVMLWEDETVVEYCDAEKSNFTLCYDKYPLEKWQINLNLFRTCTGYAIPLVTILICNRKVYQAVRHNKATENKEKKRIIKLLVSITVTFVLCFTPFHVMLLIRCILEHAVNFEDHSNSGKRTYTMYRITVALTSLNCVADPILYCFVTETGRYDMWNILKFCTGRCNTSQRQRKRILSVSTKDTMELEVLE
Kind of assay: Human GPR65 cAMP HTRF antagonist assay. Type of assay: cell-based. The note with it: 1321N1-hrGPR65 cells, assay pH 7.2, cAMP HTRF; read-out: hGPR65 IC50. Summed up: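 1321N1 cells stably expressing human GPR65 were preincubated 30 min at room temperature with compound in KRH pH 7.6 containing 1 mM IBMX and 200 μM EDTA. They were then acid-stimulated to pH 7.2 for 30 min, with pH 7.9 as control. cAMP was read by HTRF (665/620 ratio), and IC50 came from normalised 4-parameter logistic fits.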
For `O=C(Nc1cc(Cl)c(NCc2ccc(OCC(F)(F)F)cn2)cc1F)N1[C@H]2CC[C@@H]1c1n[nH]c(=O)cc1C2` [Compound 65, (6S,9R)-N-(5-chloro-2-fluoro-4-(((5-(2,2,2-trifluoroethoxy)pyridin-2-yl)methyl)amino)phenyl)-3-oxo-3,5,6,7,8,9-hexahydro-2H-6,9-epiminocyclohepta[c]pyridazine-10-carboxamide], the IC50 lay in the range of 500 to 5000 nM. Regarding `O=C(Nc1cc(Cl)c(-c2ccc(OC3CCS(=O)(=O)CC3)nc2)cc1F)N1[C@H]2CC[C@@H]1c1n[nH]c(=O)cc1C2` [Compound 87, (6S,9R)-N-(5-Chloro-4-(6-((1,1-dioxidotetrahydro-2H-thiopyran-4-yl)oxy)pyridine-3-yl)-2-fluorophenyl)-3-oxo-3,5,6,7,8,9-hexahydro-2H-6,9-epiminocyclohepta[c]pyridazine-10-carboxamide], the IC50 is below 500 nM. `O=C(Nc1cc(Cl)c(COc2ccc(F)cn2)cc1F)N1[C@H]2CC[C@@H]1c1n[nH]c(=O)cc1C2` [Compound 51, (6S,9R)-N-(5-Chloro-2-fluoro-4-(((5-fluoropyridin-2-yl)oxy)methyl)phenyl)-3-oxo-3,5,6,7,8,9-hexahydro-2H-6,9-epiminocyclohepta[c]pyridazine-10-carboxamide]: the concentration for half-maximal inhibition (IC50) is below 500 nM. As to `O=C(Nc1cc(Cl)c(-c2ccc(NCC(F)(F)F)nc2)cc1F)N1[C@H]2CC[C@@H]1c1n[nH]c(=O)cc1C2` [Compound 2, (6S,9R)-N-(5-chloro-2-fluoro-4-(6-((2,2,2-trifluoroethyl)amino)pyridin-3-yl)phenyl)-3-oxo-3,5,6,7,8,9-hexahydro-2H-6,9-epiminocyclohepta[c]pyridazine-10-carboxamide], the IC50 is below 500 nM. On to `O=C(Nc1cc(Cl)c(-c2ccc(OCC3CCOC3)nc2)cc1F)N1[C@H]2CC[C@@H]1c1c[nH]c(=O)cc1C2` (stereo partly drawn) [Compound 16, (6S,9R)-N-(5-chloro-2-fluoro-4-(6-((tetrahydrofuran-3-yl)methoxy)pyridin-3-yl)phenyl)-3-oxo-3,5,6,7,8,9-hexahydro-2H-6,9-epiminocyclohepta[c]pyridine-10-carboxamide], for which the IC50 is below 500 nM. With `O=C(Nc1cc(Cl)c(Cl)cn1)N1[C@H]2CC[C@@H]1c1ccncc1C2` [Compound 44, (5R,8S)-N-(4,5-dichloropyridin-2-yl)-6,7,8,9-tetrahydro-5H-5,8-epiminocyclohepta[c]pyridine-10-carboxamide], the half-maximal inhibitory concentration (IC50) is below 500 nM. On to `COCCOCCO[C@H]1C[C@@H](Oc2ccc(-c3cc(F)c(NC(=O)N4[C@H]5CC[C@@H]4c4c[nH]c(=O)cc4C5)cc3Cl)cn2)C1` [Compound 15, (6S,9R)-N-(5-chloro-2-fluoro-4-(6-((1s,3S)-3-(2-(2-methoxyethoxy)ethoxy)cyclobutoxy)pyridin-3-yl)phenyl)-3-oxo-3,5,6,7,8,9-hexahydro-2H-6,9-epiminocyclohepta[c]pyridine-10-carboxamide], for which the IC50 was below 500 nM. Take `O=C(Nc1cc(Cl)c(-c2ccc3nonc3c2)cn1)N1[C@@H]2CC[C@H]1c1ccnc(F)c1[C@H]2F` [Compound 75, (5S,8R,9R)-N-(5-(Benzo[c][1,2,5]oxadiazol-5-yl)-4-chloropyridin-2-yl)-1,9-difluoro-6,7,8,9-tetrahydro-5H-5,8-epiminocyclohepta[c]pyridine-10-carboxamide]: the IC50 was below 500 nM. For the molecule `O=C(Nc1cc(Cl)c(-c2ccc(OC3CCOCC3)nc2)cc1F)N1[C@H]2CC[C@@H]1c1n[nH]c(=O)cc1C2` [Compound 84, (6S,9R)-N-(5-Chloro-2-fluoro-4-(6-((tetrahydro-2H-pyran-4-yl)oxy)pyridin-3-yl)phenyl)-3-oxo-3,5,6,7,8,9-hexahydro-2H-6,9-epiminocyclohepta[c]pyridazine-10-carboxamide], the IC50 is below 500 nM. For the molecule `O=C(Nc1cc(Cl)c(COc2cccc(OCC(F)(F)F)n2)cc1F)N1[C@H]2CC[C@@H]1c1n[nH]c(=O)cc1C2` [Compound 56, (6S,9R)-N-(5-chloro-2-fluoro-4-(((6-(2,2,2-trifluoroethoxy)pyridin-2-yl)oxy)methyl)phenyl)-3-oxo-3,5,6,7,8,9-hexahydro-2H-6,9-epiminocyclohepta[c]pyridazine-10-carboxamide], the 50% inhibitory concentration (IC50) is below 500 nM. The result for `O=C(Nc1cc(Cl)c(-c2ccc(OC(C(F)F)C(F)F)nc2)cc1F)N1[C@H]2CC[C@@H]1c1c[nH]c(=O)cc1C2` [Compound 13, (6S,9R)-N-(5-chloro-2-fluoro-4-(6-((1,1,3,3-tetrafluoropropan-2-yl)oxy)pyridin-3-yl)phenyl)-3-oxo-3,5,6,7,8,9-hexahydro-2H-6,9-epiminocyclohepta[c]pyridine-10-carboxamide] reads below 500 nM; that for `O=C(Nc1cc(Cl)c(-c2ccc(OC[C@@H]3CCOC3)nc2)cc1F)N1[C@H]2CC[C@@H]1c1c[nH]c(=O)cc1C2` (single isomer, unassigned) [Compound 47], below 500 nM; that for `O=C1c2ccc(NC(=O)N3[C@H]4CC[C@@H]3c3n[nH]c(=O)cc3C4)cc2C(=O)N1c1ccc(OCC(F)(F)F)nc1` [Compound 91, (6S,9R)-N-(1,3-Dioxo-2-(6-(2,2,2-trifluoroethoxy)pyridin-3-yl)isoindolin-5-yl)-3-oxo-3,5,6,7,8,9-hexahydro-2H-6,9-epiminocyclohepta[c]pyridazine-10-carboxamide], 500 to 5000 nM. For the molecule `O=C(Nc1cc(Cl)c(COc2cccc(OCC(F)(F)F)n2)cc1F)N1[C@H]2CC[C@@H]1c1c[nH]c(=O)cc1C2` [Compound 57, (6S,9R)-N-(5-chloro-2-fluoro-4-(((6-(2,2,2-trifluoroethoxy)pyridin-2-yl)oxy)methyl)phenyl)-3-oxo-3,5,6,7,8,9-hexahydro-2H-6,9-epiminocyclohepta[c]pyridine-10-carboxamide], the half-inhibitory concentration (IC50) is below 500 nM. The same measure for `CN(CC(F)(F)F)c1ccc(-c2cc(F)c(NC(=O)N3[C@H]4CC[C@@H]3c3n[nH]c(=O)cc3C4)cc2Cl)cn1` [Compound 3, (6S,9R)-N-(5-chloro-2-fluoro-4-(6-(methyl(2,2,2-trifluoroethyl)amino)pyridin-3-yl)phenyl)-3-oxo-3,5,6,7,8,9-hexahydro-2H-6,9-epiminocyclohepta[c]pyridazine-10-carboxamide]: below 500 nM; for `O=C(Nc1cc(Cl)c(-c2ccc(OCC3CCC3)nc2)cc1F)N1[C@H]2CC[C@@H]1c1n[nH]c(=O)cc1C2` [Compound 20, (6S,9R)-N-(5-chloro-4-(6-(cyclobutylmethoxy)pyridin-3-yl)-2-fluorophenyl)-3-oxo-3,5,6,7,8,9-hexahydro-2H-6,9-epiminocyclohepta[c]pyridazine-10-carboxamide]: below 500 nM.

As for `O=C(Nc1cc(Cl)c(Cl)cc1OCC1(F)CC1)N1[C@H]2CC[C@@H]1c1n[nH]c(=O)cc1C2` [Compound 89, (6S,9R)-N-(4,5-Dichloro-2-((1-fluorocyclopropyl)methoxy)phenyl)-3-oxo-3,5,6,7,8,9-hexahydro-2H-6,9-epiminocyclohepta[c]pyridazine-10-carboxamide], the concentration for half-maximal inhibition (IC50) was above 5000 nM. Regarding `O=C(Nc1cc(Cl)c(COc2ccc(OC3CCCC3)cn2)cc1F)N1[C@H]2CC[C@@H]1c1c[nH]c(=O)cc1C2` [Compound 58, (6S,9R)-N-(5-chloro-4-(((5-(cyclopentyloxy)pyridin-2-yl)oxy)methyl)-2-fluorophenyl)-3-oxo-3,5,6,7,8,9-hexahydro-2H-6,9-epiminocyclohepta[c]pyridine-10-carboxamide], the IC50 was below 500 nM. The same measure for `O=C(Nc1cc(Cl)c(-c2ccc(OCC(F)(F)F)nc2)cc1F)N1[C@H]2CC[C@@H]1C(F)(F)c1c2ccnc1F` [Compound 72, (5S,8R)-N-(5-Chloro-2-fluoro-4-(6-(2,2,2-trifluoroethoxy)pyridin-3-yl)phenyl)-1,9,9-trifluoro-6,7,8,9-tetrahydro-5H-5,8-epiminocyclohepta[c]pyridine-10-carboxamide]: below 500 nM; for `CN(CC(F)(F)F)c1ccnc(-c2cc(F)c(NC(=O)N3[C@H]4CC[C@@H]3c3c[nH]c(=O)cc3C4)cc2Cl)c1` [Compound 39, (6S,9R)-N-(5-chloro-2-fluoro-4-(4-(methyl(2,2,2-trifluoroethyl)amino)pyridin-2-yl)phenyl)-3-oxo-3,5,6,7,8,9-hexahydro-2H-6,9-epiminocyclohepta[c]pyridine-10-carboxamide]: below 500 nM. Consider `O=C(Nc1cc(Cl)c(-c2ccc(OC[C@H]3CC3(F)F)nc2)cc1F)N1[C@H]2CC[C@@H]1c1n[nH]c(=O)cc1C2` [Compound 81, (6S,9R)-N-(5-Chloro-4-(6-(((R)-2,2-difluorocyclopropyl)methoxy)pyridin-3-yl)-2-fluorophenyl)-3-oxo-3,5,6,7,8,9-hexahydro-2H-6,9-epiminocyclohepta[c]pyridazine-10-carboxamide], for which the IC50 was below 500 nM. Consider `O=C(Nc1cc(Cl)c(-c2ccc3nonc3c2)cn1)N1C2CCC1[C@H](F)c1c2ccnc1F` (mixture of isomers) [Compound 5, (±,9S)-N-(5-(benzo[c][1,2,5]oxadiazol-5-yl)-4-chloropyridin-2-yl)-1,9-difluoro-6,7,8,9-tetrahydro-5H-5,8-epiminocyclohepta[c]pyridine-10-carboxamide], for which the IC50 was below 500 nM. On to `Cc1cc(NC(=O)N2[C@H]3CC[C@@H]2c2c[nH]c(=O)cc2C3)c(F)cc1-c1ccc2nsnc2c1` [Compound 17, (6S,9R)-N-(4-(benzo[c][1,2,5]thiadiazol-5-yl)-2-fluoro-5-methylphenyl)-3-oxo-3,5,6,7,8,9-hexahydro-2H-6,9-epiminocyclohepta[c]pyridine-10-carboxamide], for which the IC50 is below 500 nM. On to `Cc1cc(NC(=O)N2[C@H]3CC[C@@H]2c2c[nH]c(=O)cc2C3)c(F)cc1-c1ccc(OCC(F)(F)F)nc1` [Compound 18, (6S,9R)-N-(2-fluoro-5-methyl-4-(6-(2,2,2-trifluoroethoxy)pyridin-3-yl)phenyl)-3-oxo-3,5,6,7,8,9-hexahydro-2H-6,9-epiminocyclohepta[c]pyridine-10-carboxamide], for which the IC50 is below 500 nM.

The term IC50 denotes the midpoint of a concentration-inhibition curve.

These data come from US20260285863A1, “COMPOUNDS CAPABLE OF MODULATING GPR65” (Pathios Therapeutics Limited, priority 2023, published 2026).
